Columns and labels:
Type in all cases: in vivo
Pennsylvania Smartweed [1] = test: Pre-emergent herbicidal activity (Table A); conditions: Pesw, 11.2 kg/ha, 10-14 days
Procedure, shortened: (§1)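 Percent inhibition per species, scored on a rating scale, after pre-emergent soil incorporation: test compound in acetone or water carrier mixed into cover soil, layered over seeded topsoil or vegetative propagules.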

Common Lambsquarters [2] = test: Pre-emergent herbicidal activity (Table A); conditions: Colq, 11.2 kg/ha, 10-14 days
Procedure, shortened: as §1

Yellow Nutsedge [3] = test: Pre-emergent herbicidal activity (Table A); conditions: Yens, 11.2 kg/ha, 10-14 days
Procedure, shortened: as §1

Canada thistle [4] = test: Pre-emergent herbicidal activity (Table A); conditions: Cath, 11.2 kg/ha, 10-14 days
Procedure, shortened: as §1

Quackgrass [5] = test: Pre-emergent herbicidal activity (Table A); conditions: Rhqg, 11.2 kg/ha, 10-14 days
Procedure, shortened: as §1

Barnyardgrass [6] = test: Pre-emergent herbicidal activity (Table A); conditions: Bygr, 11.2 kg/ha, 10-14 days
Procedure, shortened: as §1

Cocklebur [7] = test: Pre-emergent herbicidal activity (Table A); conditions: Cobu, 11.2 kg/ha, 10-14 days
Procedure, shortened: as §1

Velvetleaf [8] = test: Pre-emergent herbicidal activity (Table A); conditions: Vele, 11.2 kg/ha, 10-14 days
Procedure, shortened: as §1

Downy Brome [9] = test: Pre-emergent herbicidal activity (Table A); conditions: Dobr, 11.2 kg/ha, 10-14 days
Procedure, shortened: as §1

Morningglory [10] = test: Pre-emergent herbicidal activity (Table A); conditions: Mogl, 11.2 kg/ha, 10-14 days
Procedure, shortened: as §1

Rhizome Johnsongrass [11] = test: Pre-emergent herbicidal activity (Table A); conditions: Rhjg, 11.2 kg/ha, 10-14 days
Procedure, shortened: as §1

Pennsylvania Smartweed [12] = test: Post-emergence herbicidal activity (Table C); conditions: Pesw, 11.2 kg/ha, 10-14 days
From the text: (§2) The post-emergent activity is best seen on younger plants treated at the 11/2 to 2 leaf stage. In the tests which follow, larger and more developed plants were used.
(§3) The post-emergent herbicidal activity index used in Table C is as follows:
(§4) Top soil was placed in pans having holes in the bottom and compacted to a depth of 0.95 to 1.27 cm. from the top of the pan. A predetermined number of seeds of each of several dicotyledonous and monocotyledonous annual plant species and/or vegetative propagules for the perennial plant species were placed on the soil and pressed into the soil surface. The seeds and/or vegetative propagules were covered with soil and leveled. The pans were then placed on a bench in the greenhouse and watered as needed for germination and growth. After the plants reached the desired age (two to three weeks), each pan (except the control pans) was moved to a spraying chamber and sprayed by means of an atomizer. The spray solution or suspension contained about 0.4% by volume of an emulsifying agent and a sufficient amount of the candidate chemical to give an application rate of the active ingredient of 11.2 kg/ha while applying a total amount of solution or suspension equivalent to 1870 L/ha. […] The plant identifying codes in Table C are the same as above defined.

Yellow Nutsedge [13] = test: Post-emergence herbicidal activity (Table C); conditions: Yens, 11.2 kg/ha, 10-14 days
From the text: as §2, §3, §4

Canada thistle [14] = test: Post-emergence herbicidal activity (Table C); conditions: Cath, 11.2 kg/ha, 10-14 days
From the text: as §2, §3, §4

Quackgrass [15] = test: Post-emergence herbicidal activity (Table C); conditions: Rhqg, 11.2 kg/ha, 10-14 days
From the text: as §2, §3, §4

Cocklebur [16] = test: Post-emergence herbicidal activity (Table C); conditions: Cobu, 11.2 kg/ha, 10-14 days
From the text: as §2, §3, §4

Velvetleaf [17] = test: Post-emergence herbicidal activity (Table C); conditions: Vele, 11.2 kg/ha, 10-14 days
From the text: as §2, §3, §4

Downy Brome [18] = test: Post-emergence herbicidal activity (Table C); conditions: Dobr, 11.2 kg/ha, 10-14 days
From the text: as §2, §3, §4

Morningglory [19] = test: Post-emergence herbicidal activity (Table C); conditions: Mogl, 11.2 kg/ha, 10-14 days
From the text: as §2, §3, §4

Rhizome Johnsongrass [20] = test: Post-emergence herbicidal activity (Table C); conditions: Rhjg, 11.2 kg/ha, 10-14 days
From the text: as §2, §3, §4

Common Lambsquarters [21] = test: Post-emergence herbicidal activity (Table C); conditions: Colq, 11.2 kg/ha, 10-14 days
From the text: (§5) In the tests which follow, larger and more developed plants were used.
as §3
as §4, with “atomizer.” for “atomizer. The spray solution or suspension contained about 0.4% by volume of an emulsifying agent and a sufficient amount of the candidate chemical to give an application rate of the active ingredient of 11.2 kg/ha while applying a total amount of solution or suspension equivalent to 1870 L/ha.”

Barnyardgrass [22] = test: Post-emergence herbicidal activity (Table C); conditions: Bygr, 11.2 kg/ha, 10-14 days
From the text: as §5, §3
as §4, with “atomizer.” for “atomizer. The spray solution or suspension contained about 0.4% by volume of an emulsifying agent and a sufficient amount of the candidate chemical to give an application rate of the active ingredient of 11.2 kg/ha while applying a total amount of solution or suspension equivalent to 1870 L/ha.”

Indian Mustard = test: Pre-emergent herbicidal activity (Table A); conditions: Brassica juncea, pre-emergence, Inmu, 11.2 kg/ha, 10-14 days, read-out: herbicidal rating (% inhibition)
Procedure, shortened: (§6)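 Compound incorporated into the cover-soil layer over sown seed at a rate equivalent to 11.2 kg/ha (acetone or water carrier). Greenhouse growth with watering as needed; ratings reflect percent inhibition per species, recorded around day 11 (range 10–14).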

Annual Bluegrass = test: Pre-emergent herbicidal activity (Table A); conditions: pre-emergence, Anbg, 11.2 kg/ha, 10-14 days, read-out: herbicidal rating (% inhibition)
Procedure, shortened: as §6

Seedling Johnsongrass = test: Pre-emergent herbicidal activity (Table A); conditions: Sorghum halepense, pre-emergence, Sejg, 11.2 kg/ha, 10-14 days, read-out: herbicidal rating (% inhibition)
Procedure, shortened: as §6

Wild Buckwheat = test: Pre-emergent herbicidal activity (Table A); conditions: Fallopia convolvulus, pre-emergence, Wibw, 11.2 kg/ha, 10-14 days, read-out: herbicidal rating (% inhibition)
Procedure, shortened: as §6

3-pyridinecarboxylic acid, 5-(aminocarbonyl)-1,2,3,4-tetrahydro-4-(2-methylpropyl)-6-(pentafluoroethyl)-, ethyl ester [Compound 10]
herbicidal rating (% inhibition) (Pennsylvania Smartweed [1]): 0 (0-24)
herbicidal rating (% inhibition) (Common Lambsquarters [2]): 0 (0-24)
herbicidal rating (% inhibition) (Yellow Nutsedge [3]): 0 (0-24)
herbicidal rating (% inhibition) (Canada thistle [4]): 0 (0-24)
herbicidal rating (% inhibition) (Quackgrass [5]): 0 (0-24)
herbicidal rating (% inhibition) (Barnyardgrass [6]): 0 (0-24)
herbicidal rating (% inhibition) (Cocklebur [7]): 0 (0-24)
herbicidal rating (% inhibition) (Velvetleaf [8]): 0 (0-24)
herbicidal rating (% inhibition) (Downy Brome [9]): 0 (0-24)
herbicidal rating (% inhibition) (Morningglory [10]): 0 (0-24)
herbicidal rating (% inhibition) (Rhizome Johnsongrass [11]): 0 (0-24)
post-emergent herbicidal activity index (Pennsylvania Smartweed [12]): 0 (0-24% inhibition)
post-emergent herbicidal activity index (Yellow Nutsedge [13]): 0 (0-24% inhibition)
post-emergent herbicidal activity index (Canada thistle [14]): 0 (0-24% inhibition)
post-emergent herbicidal activity index (Quackgrass [15]): 0 (0-24% inhibition)
post-emergent herbicidal activity index (Cocklebur [16]): 0 (0-24% inhibition)
post-emergent herbicidal activity index (Velvetleaf [17]): 0 (0-24% inhibition)
post-emergent herbicidal activity index (Downy Brome [18]): 0 (0-24% inhibition)
post-emergent herbicidal activity index (Morningglory [19]): 0 (0-24% inhibition)
post-emergent herbicidal activity index (Rhizome Johnsongrass [20]): 0 (0-24% inhibition)
post-emergent herbicidal activity index (Common Lambsquarters [21]): 0 (0-24% inhibition)
post-emergent herbicidal activity index (Barnyardgrass [22]): 0 (0-24% inhibition)

CCOC=NNC(=O)c1c(C(F)(F)F)nc(OC)c(C(=O)OC)c1CC(C)C [Compound 124, 3,5-pyridinedicarboxylic acid, 2-methoxy-4-(2-methylpropyl)-6-(trifluoromethyl)-, 3-methyl ester, 5-(ethoxymethylene)hydrazide]
inhibition at 11200 g/ha (Yellow Nutsedge [3]; Cyperus, pre-emergence, read-out: herbicidal rating (% inhibition)): 0 to 24%
inhibition at 11200 g/ha (Barnyardgrass [6]; Echinochloa crus-galli, pre-emergence, read-out: herbicidal rating (% inhibition)): 0 to 24%
inhibition at 11200 g/ha (Cocklebur [7]; Xanthium strumarium, pre-emergence, read-out: herbicidal rating (% inhibition)): 0 to 24%
inhibition at 11200 g/ha (Velvetleaf [8]; Abutilon theophrasti, pre-emergence, read-out: herbicidal rating (% inhibition)): 0 to 24%
inhibition at 11200 g/ha (Downy Brome [9]; Bromus tectorum, pre-emergence, read-out: herbicidal rating (% inhibition)): 0 to 24%
inhibition at 11200 g/ha (Morningglory [10]; Ipomoea, pre-emergence, read-out: herbicidal rating (% inhibition)): 0 to 24%
inhibition at 11200 g/ha (Indian Mustard): 0 to 24%
inhibition at 11200 g/ha (Annual Bluegrass): 0 to 24%
inhibition at 11200 g/ha (Seedling Johnsongrass): 0 to 24%
inhibition at 11200 g/ha (Wild Buckwheat): 0 to 24%

Source: patent US5391540A, “Substituted pyridine compounds” (Rohm and Haas Company, priority 1993, dated 1995)
